Laboratory results as given in ChEMBL document CHEMBL6182863, “Discovery of novel rigid STING PROTAC degraders as potential therapeutics for acute kidney injury” (Eur J Med Chem, 2025).
Calls of active or inactive are those of the source. The rule behind the calls is not given here.

How the values were obtained:
[1] = tested on: HK-2; experiment: Inhibition of ROS formation in human HK-2 cells measured after 24 hrs in presence of cisplatin by DAPI staining based fluorescence microscopic analysis; format: functional, cell-based; conditions: dose 1.25-5 µM
[2] = tested on: THP-1; experiment: PROTAC activity at CRBN/LKB1 in human THP-1 cells assessed as induction of LKB1 degradation at 1.25 to 20 uM by Western blotting analysis; format: cell-based; conditions: dose 1.25-20 µM
[3] = tested on: HK-2; experiment: Inhibition of STING downstream signal pathway in cisplatin stimulated human HK-2 cells assessed as reduction in P-P65 level by […] analysis; format: cell-based; conditions: dose 1.25-5 µM
[4] = MRT (0 to infinity) in male Sprague-Dawley rat at 2 mg/kg, iv measured after 12 hrs by LC-MS/MS analysis; format: ADME, organism-based; conditions: in vivo
[5] = tested on: THP-1; experiment: PROTAC activity at CRBN/AKT in human THP-1 cells assessed as induction of AKT degradation at 1.25 to 20 uM measured after 24 hrs by Western blotting analysis; format: cell-based; conditions: dose 1.25-20 µM
[6] = tested on: Mus musculus; experiment: Renoprotective activity against cisplatin-induced C57BL/6J mouse acute kidney injury model assessed as reduction in creatinine level at 25 to 50 mg/kg, ip measured after 72 hrs; format: functional, organism-based; conditions: dose 25-50 mg/kg
[7] = AUC (0 to infinity) in male Sprague-Dawley rat at 2 mg/kg, iv measured after 12 hrs by LC-MS/MS analysis; format: ADME, organism-based; conditions: in vivo
[8] = Acute toxicity in C57BL/6J mouse assessed as change in body weight at 43 mg/kg; format: organism-based; conditions: in vivo
[9] = tested on: Mus musculus; experiment: Renoprotective activity against cisplatin-induced C57BL/6J mouse acute kidney injury model assessed as decrease in fecal viscosity at 25 to 50 mg/kg, ip measured after 72 hrs; format: functional, organism-based; conditions: dose 25-50 mg/kg
[10] = tested on: THP-1; experiment: PROTAC activity at CRBN/AMPK in human THP-1 cells assessed as induction of AMPK degradation at 1.25 to 20 uM measured after 24 hrs by Western blotting analysis; format: cell-based; conditions: dose 1.25-20 µM
[11] = tested on: Mus musculus; experiment: Renoprotective activity against cisplatin-induced C57BL/6J mouse acute kidney injury model assessed as survival rate at 50 mg/kg, ip measured after 72 hrs relative to control; format: functional
[12] = tested on: Mus musculus; experiment: Renoprotective activity against cisplatin-induced C57BL/6J mouse acute kidney injury model assessed as decrease in fecal occult blood at 25 to 50 mg/kg, ip measured after 72 hrs; format: functional, organism-based; conditions: dose 25-50 mg/kg
[13] = Toxicity in cisplatin-induced acute kidney injury C57BL/6J mouse model assessed as morphological abnormality in spleen at 25 to 50 mg/kg, ip by H and E staining based analysis; format: organism-based; conditions: in vivo, dose 25-50 mg/kg
[14] = tested on: H9c2; experiment: Cytotoxicity against rat H9c2 cells assessed as reduction in cell viability at 0.5 to 120 uM incubated for 24 hrs by MTT assay; format: toxicity, cell-based; conditions: h9c2, 24 h, dose 0.5-120 µM
[15] = target: Protein cereblon/Stimulator of interferon genes protein (Mus musculus) (UniProt Q3TBT3+Q8C7D2); experiment: In vivo inhibition of STING/TBK1/NF-kappaB signaling in C57BL/6J mouse assessed as decrease in serum IFN-beta level at 25 to 50 mg/kg, ip measured after 72 hrs by ELISA; format: functional, organism-based; conditions: dose 25-50 mg/kg
[16] = Metabolic stability in human liver microsomes assessed as intrinsic clearance per gram of protein; format: ADME, Microsome
[17] = target: Protein cereblon/Stimulator of interferon genes protein (Homo sapiens, UniProt Q96SW2+Q86WV6); experiment: PROTAC activity at CRBN/STING in human THP-1 cells assessed as induction of STING degradation at 5 uM incubated for 24 hrs in presence of bafilomycin by Western blotting analysis; format: cell-based
[18] = tested on: Mus musculus; experiment: Renoprotective activity against cisplatin-induced C57BL/6J mouse model assessed as reduction in renal injury administered intraperitoneally by H and E staining based analysis; format: functional, organism-based; conditions: dose 25-50 mg/kg, route ip
[19] = tested on: Mus musculus; experiment: Renoprotective activity against cisplatin-induced C57BL/6J mouse acute kidney injury model assessed as recovery of body weight administered intraperitoneally and measured after 72 hrs; format: functional, organism-based; conditions: dose 25-50 mg/kg, route ip
[20] = Acute toxicity in C57BL/6J mouse assessed as mortality at 30 to 179 mg/kg; format: organism-based; conditions: in vivo, dose 30-179 mg/kg
[21] = Metabolic stability in human liver microsomes assessed as half life; format: ADME, Microsome
[22] = tested on: Mus musculus; experiment: Renoprotective activity against cisplatin-induced C57BL/6J mouse acute kidney injury model assessed as decrease in body weight at 25 to 50 mg/kg, ip measured after 72 hrs; format: functional, organism-based; conditions: dose 25-50 mg/kg
[23] = Toxicity in cisplatin-induced acute kidney injury C57BL/6J mouse model assessed as morphological abnormality in heart at 25 to 50 mg/kg, ip by H and E staining based analysis; format: organism-based; conditions: in vivo, dose 25-50 mg/kg
[24] = Half life in male Sprague-Dawley rat at 2 mg/kg, iv measured after 12 hrs by LC-MS/MS analysis; format: ADME, organism-based; conditions: in vivo
[25] = Acute toxicity in C57BL/6J mouse assessed as change in body weight at 61 mg/kg; format: organism-based; conditions: in vivo

Chain of Protein cereblon/Stimulator of interferon genes protein (Mus musculus) (Q3TBT3 whole entry, looked up): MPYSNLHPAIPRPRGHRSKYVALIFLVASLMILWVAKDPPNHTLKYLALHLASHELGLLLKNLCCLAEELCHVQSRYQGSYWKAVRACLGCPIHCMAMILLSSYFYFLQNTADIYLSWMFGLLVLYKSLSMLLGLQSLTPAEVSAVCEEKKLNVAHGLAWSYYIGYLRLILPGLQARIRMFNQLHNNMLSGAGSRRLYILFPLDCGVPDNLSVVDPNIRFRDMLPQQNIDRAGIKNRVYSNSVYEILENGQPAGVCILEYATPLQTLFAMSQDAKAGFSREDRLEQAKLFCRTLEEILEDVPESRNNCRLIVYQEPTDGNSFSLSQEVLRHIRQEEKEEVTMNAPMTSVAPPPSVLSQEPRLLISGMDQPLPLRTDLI
Chain of Protein cereblon/Stimulator of interferon genes protein (Mus musculus) (Q8C7D2 whole entry, looked up): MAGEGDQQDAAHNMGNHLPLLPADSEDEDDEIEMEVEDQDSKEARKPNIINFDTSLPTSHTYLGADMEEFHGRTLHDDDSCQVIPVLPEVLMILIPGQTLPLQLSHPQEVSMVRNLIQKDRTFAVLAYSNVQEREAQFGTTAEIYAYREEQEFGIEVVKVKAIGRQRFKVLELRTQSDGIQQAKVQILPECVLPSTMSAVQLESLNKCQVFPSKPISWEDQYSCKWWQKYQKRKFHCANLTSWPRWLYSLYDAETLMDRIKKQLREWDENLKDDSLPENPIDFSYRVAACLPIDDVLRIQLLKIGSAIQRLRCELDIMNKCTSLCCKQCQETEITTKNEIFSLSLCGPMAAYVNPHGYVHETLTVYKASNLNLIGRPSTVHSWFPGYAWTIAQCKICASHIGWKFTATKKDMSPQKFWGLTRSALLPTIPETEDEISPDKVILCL
Chain of Protein cereblon/Stimulator of interferon genes protein (Q86WV6 whole entry, looked up): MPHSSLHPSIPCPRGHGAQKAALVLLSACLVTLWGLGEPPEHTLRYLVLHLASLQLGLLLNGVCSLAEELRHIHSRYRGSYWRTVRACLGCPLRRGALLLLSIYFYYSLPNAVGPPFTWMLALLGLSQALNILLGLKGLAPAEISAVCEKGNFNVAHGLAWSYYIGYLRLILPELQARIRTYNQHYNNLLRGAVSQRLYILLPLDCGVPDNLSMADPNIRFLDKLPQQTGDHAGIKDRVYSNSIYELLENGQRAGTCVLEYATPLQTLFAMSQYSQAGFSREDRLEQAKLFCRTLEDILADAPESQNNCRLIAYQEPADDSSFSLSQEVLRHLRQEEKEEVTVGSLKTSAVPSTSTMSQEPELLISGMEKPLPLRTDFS
Chain of Protein cereblon/Stimulator of interferon genes protein (Q96SW2 whole entry, looked up): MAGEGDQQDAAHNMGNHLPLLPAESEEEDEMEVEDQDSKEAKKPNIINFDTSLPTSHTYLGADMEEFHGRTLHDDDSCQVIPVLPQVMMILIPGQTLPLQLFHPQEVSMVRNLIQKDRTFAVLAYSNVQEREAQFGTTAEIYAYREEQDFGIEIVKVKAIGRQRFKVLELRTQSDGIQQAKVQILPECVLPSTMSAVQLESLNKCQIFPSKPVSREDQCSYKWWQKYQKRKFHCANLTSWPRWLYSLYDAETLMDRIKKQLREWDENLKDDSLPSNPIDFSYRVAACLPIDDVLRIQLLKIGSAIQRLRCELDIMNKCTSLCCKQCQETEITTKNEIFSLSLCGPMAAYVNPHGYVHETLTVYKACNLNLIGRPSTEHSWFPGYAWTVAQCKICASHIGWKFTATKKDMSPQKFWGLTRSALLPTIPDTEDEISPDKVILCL

O=C(/C=C/C(=O)N1CCN(CC2CCN(c3cccc4c3C(=O)N(C3CCC(=O)NC3=O)C4=O)C2)CC1)Nc1ccc(NC(=O)c2ccc([N+](=O)[O-])o2)cc1 (stereo not given)
inhibition [1]: Dose-dependent-effect
Activity [2]: inactive
inhibition [3]: Dose-dependent-effect
MRT inf [4]: 12.6 min
Activity [5]: inactive
Activity [6]: Active
AUC [7]: 0.73 µg/ml.hr
Activity [8]: 24.2 g
Activity [9]: Active
Activity [10]: inactive
survival at 50 mg/kg [11]: 100%
Activity [12]: Active
Activity [13]: Non-toxic
Activity [14]: Non-toxic
inhibition [15]: Active
CLint [16]: 104 mL/min/g
Activity [17]: Active
Activity [18]: Dose-dependent-effect
Activity [19]: Dose-dependent-effect
Activity [20]: Non-toxic
half-life [21]: 20.1 min
Activity [22]: Active
Activity [23]: Non-toxic
half-life [24]: 51.6 min
Activity [25]: 25.3 g
